“Also recorded” adds a separate entry of the source.
Experiments:
NK2 receptors = conditions: literature; cited from earlier work
NK1 receptor [1] = conditions: literature; cited from earlier work
[2] = molecular target: T1, NK1 receptor (Guinea Pig Trachea) (Cavia porcellus, UniProt P30547); test: NK1 antagonist activity, guinea pig trachea; conditions: read-out: NK1 Antagonist Activity pkB/pA2, Guinea Pig Trachea (converted)
T1 construct: Trachea; from tissue; host or cells: guinea pig trachea

NK1 receptor [3] = molecular target: T2, NK1 receptor (Cavia porcellus, UniProt P30547); test: Antagonism of substance-P methylester in a number of in vitro NK1 preparations; design: species or system guinea pig
T2 construct: guinea pig cerebral cortex membranes; from tissue; host or cells: guinea pig cerebral cortex membranes
Excerpt: Therefore, it could be of use in therapeutic disorders where attenuation of the NK1 receptor response is an appropriate form of intervention.

NK1 receptor [4] = molecular target: T2, NK1 receptor; test: In vitro NK1 receptor binding ([125I] Bolton Hunter Substance-P, guinea pig cerebral cortex membranes); conditions: Binding IC50, In Vitro NK1 Receptor Binding, [125I-BH]Substance-P 0.1 nM
Method: The compounds of the invention were also evaluated in three tachykinin binding assays.

[5] = molecular target: T3, NK1 receptor (Guinea Pig Ileum) (Cavia porcellus, UniProt P30547); test: NK1 antagonist activity, guinea pig ileum; conditions: read-out: NK1 Antagonist Activity pkB/pA2, Guinea Pig Ileum (converted)
T3 construct: Ileum; from tissue; host or cells: guinea pig ileum

NK3 receptors = conditions: literature; cited from earlier work

T2 sequence (P30547 whole entry): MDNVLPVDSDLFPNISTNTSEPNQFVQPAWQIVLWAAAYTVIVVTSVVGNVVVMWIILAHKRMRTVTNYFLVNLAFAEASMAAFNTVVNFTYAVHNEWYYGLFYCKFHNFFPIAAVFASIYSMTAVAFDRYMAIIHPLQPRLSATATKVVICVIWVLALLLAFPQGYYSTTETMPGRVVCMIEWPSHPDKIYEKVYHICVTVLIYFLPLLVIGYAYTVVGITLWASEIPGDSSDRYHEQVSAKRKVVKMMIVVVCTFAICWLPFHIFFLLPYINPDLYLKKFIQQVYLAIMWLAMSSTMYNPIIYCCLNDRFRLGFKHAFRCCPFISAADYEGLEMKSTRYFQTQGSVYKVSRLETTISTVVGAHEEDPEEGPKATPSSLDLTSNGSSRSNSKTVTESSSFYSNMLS
T3 sequence (P30547 whole entry): as above
T1 sequence (P30547 whole entry): as above

Q: For `CC(=O)NC1(c2ccccc2)CCN(CC[C@H](CN(C)C(=O)c2ccccc2)c2ccc(Cl)c(Cl)c2)CC1` [SR 48969], which “NK2 receptor affinity or selectivity, in words” value (NK2 receptors) is on record?
A: high affinity and selectivity for NK2 receptors

Q: With `COc1ccccc1CC(=N)N1C[C@@H]2C(=O)CCC(c3ccccc3)(c3ccccc3)[C@@H]2C1` [RP 67580] as the compound, how does the “NK1 receptor affinity or activity, in words” value (NK1 receptor [1]) read?
A: antagonists at the NK1 receptor

Q: With `C[C@H](NC(=O)[C@@](C)(Cc1c[nH]c2ccccc12)NC(=O)OCc1ccccc1)c1ccccc1` [Example 15] as the compound, how does the Kb [2] read?
A: 39.8 nM

Q: What about the “NK1 receptor antagonism, in words” value (NK1 receptor [3]; listed as Ex. 15) of the same compound?
A: antagonist of the NK1 receptor; also recorded: tachykinin NK1 receptor antagonist

Q: And the Kb (NK1 receptor [3]; read-out: pKB against substance-P methylester on these tissues (converted))?
A: ~10 nM

Q: And the IC50 (NK1 receptor [4])?
A: 36 nM

Q: What about the Kb [5] of the same compound?
A: 15.8 nM

Q: For NKB: mammalian tachykinin neuropeptide, which “NK3 receptor binding, in words” value (NK3 receptors) is on record?
A: bind preferentially

Q: With NKA: mammalian tachykinin neuropeptide as the compound, how does the “NK2 receptor affinity or selectivity, in words” value (NK2 receptors) read?
A: bind preferentially to NK2

Q: For `CN(Cc1ccccc1)C(=O)[C@H](Cc1ccc2ccccc2c1)NC(=O)[C@@H]1C[C@@H](O)CN1C(=O)c1cn(C)c2ccccc12` [FK 888], which “NK1 receptor affinity or activity, in words” value (NK1 receptor [1]) is on record?
A: high affinity for the NK1 receptor

Q: With `COc1ccccc1CN[C@H]1C2CCN(CC2)[C@H]1C(c1ccccc1)c1ccccc1` [CP-96,345] as the compound, how does the “NK1 receptor affinity or activity, in words” value (NK1 receptor [1]) read?
A: antagonists at the NK1 receptor
